Literature values, collected in PubChem BioAssay AID1259409 (Chemical Carcinogenesis Research Information System (CCRIS), 2018).

Tested on: rodent chemically induced tumor inhibition, incidence and multiplicity
Test: CCRIS tumor inhibitor studies
Settings: Route [Inhibitor]: ORAL, Promoter: NONE USED
Description: The CCRIS database contains chemical records with carcinogenicity, mutagenicity, tumor promotion, and tumor inhibition test results. It was developed by the National Cancer Institute (NCI). Data are derived from studies cited in primary journals, current awareness tools, NCI reports, and other sources. Test results have been reviewed by experts in carcinogenesis and mutagenesis.
CCRIS provides historical information from the years 1985 - 2011. It is no longer updated.
This is an archive assay for CCRIS tumor inhibitor studies.

## O=[Se]=O
Carcinogen: N-2-FLUORENYLACETMIDE, 53-96-3, Dose [Inhibitor]: 0.1 PPM IN DIET DAILY STARTING SIMULTANEOUSLY WITH CARCINOGEN TREATMENT AT AGE 35 D AND CONTINUING FOR DURATION OF STUDY, Species: RAT, Strain/Sex: OSU-BROWN/FEMALE, Target Tissue: Type of Lesion: LIVER: HEPATOMA, Dose [Carcinogen]: 150 PPM IN DIET DAILY FOR DURATION OF STUDY
  tumour outcome (control, treated, inhibition, significance): 85%, 100%, -18%, not calculated
Carcinogen: N-2-FLUORENYLACETMIDE, 53-96-3, Dose [Inhibitor]: 0.1 PPM IN DIET DAILY STARTING SIMULTANEOUSLY WITH CARCINOGEN TREATMENT AT AGE 35 D AND CONTINUING FOR DURATION OF STUDY, Species: RAT, Strain/Sex: OSU-BROWN/FEMALE, Target Tissue: Type of Lesion: MAMMARY GLAND: ADENOCARCINOMA, Dose [Carcinogen]: 150 PPM IN DIET DAILY FOR DURATION OF STUDY
  tumour outcome (control, treated, inhibition, significance): 94%, 100%, -6%, not calculated
Carcinogen: N-2-FLUORENYLACETMIDE, 53-96-3, Dose [Inhibitor]: 0.5 PPM IN DIET DAILY STARTING SIMULTANEOUSLY WITH CARCINOGEN TREATMENT AT AGE 35 D AND CONTINUING FOR DURATION OF STUDY, Species: RAT, Strain/Sex: OSU-BROWN/FEMALE, Target Tissue: Type of Lesion: LIVER: HEPATOMA, Dose [Carcinogen]: 150 PPM IN DIET DAILY FOR DURATION OF STUDY
  tumour outcome (control, treated, inhibition, significance): 85%, 80%, 6%, not calculated
Carcinogen: N-2-FLUORENYLACETMIDE, 53-96-3, Dose [Inhibitor]: 0.5 PPM IN DIET DAILY STARTING SIMULTANEOUSLY WITH CARCINOGEN TREATMENT AT AGE 35 D AND CONTINUING FOR DURATION OF STUDY, Species: RAT, Strain/Sex: OSU-BROWN/FEMALE, Target Tissue: Type of Lesion: MAMMARY GLAND: ADENOCARCINOMA, Dose [Carcinogen]: 150 PPM IN DIET DAILY FOR DURATION OF STUDY
  tumour outcome (control, treated, inhibition, significance): 94%, 85%, 10%, not calculated
Carcinogen: N-2-FLUORENYLACETMIDE, 53-96-3, Dose [Inhibitor]: 2.5 PPM IN DIET DAILY STARTING SIMULTANEOUSLY WITH CARCINOGEN TREATMENT AT AGE 35 D AND CONTINUING FOR DURATION OF STUDY, Species: RAT, Strain/Sex: OSU-BROWN/FEMALE, Target Tissue: Type of Lesion: LIVER: HEPATOMA, Dose [Carcinogen]: 150 PPM IN DIET DAILY FOR DURATION OF STUDY
  tumour outcome (control, treated, inhibition, significance): 85%, 50%, 41%, not calculated
Carcinogen: N-2-FLUORENYLACETMIDE, 53-96-3, Dose [Inhibitor]: 2.5 PPM IN DIET DAILY STARTING SIMULTANEOUSLY WITH CARCINOGEN TREATMENT AT AGE 35 D AND CONTINUING FOR DURATION OF STUDY, Species: RAT, Strain/Sex: OSU-BROWN/FEMALE, Target Tissue: Type of Lesion: MAMMARY GLAND: ADENOCARCINOMA, Dose [Carcinogen]: 150 PPM IN DIET DAILY FOR DURATION OF STUDY
  tumour outcome (control, treated, inhibition, significance): 94%, 68%, 28%, not calculated
Carcinogen: NONE USED, Dose [Inhibitor]: 0.1 PPM IN DRINKING WATER DAILY FOR 22 MO STARTING AT AGE 2 MO AND CONTINUING FOR DURATION OF STUDY (STUDY DURATION: 22, Species: MOUSE, Strain/Sex: C3H/FEMALE, Target Tissue: Type of Lesion: MAMMARY GLAND: ADENOCARCINOMA
  tumour outcome (control, treated, inhibition, significance): 42%, 25%, 40%, not calculated
Carcinogen: NONE USED, Dose [Inhibitor]: 0.5 PPM IN DRINKING WATER DAILY FOR 22 MO STARTING AT AGE 2 MO AND CONTINUING FOR DURATION OF STUDY (STUDY DURATION: 22, Species: MOUSE, Strain/Sex: C3H/FEMALE, Target Tissue: Type of Lesion: MAMMARY GLAND: ADENOCARCINOMA
  tumour outcome (control, treated, inhibition, significance): 42%, 19%, 55%, not calculated
Carcinogen: NONE USED, Dose [Inhibitor]: 1 PPM IN DRINKING WATER DAILY FOR 22 MO STARTING AT AGE 2 MO AND CONTINUING FOR DURATION OF STUDY (STUDY DURATION: 22 MO, Species: MOUSE, Strain/Sex: C3H/FEMALE, Target Tissue: Type of Lesion: MAMMARY GLAND: ADENOCARCINOMA
  tumour outcome (control, treated, inhibition, significance): 42%, 10%, 76%, not calculated
Carcinogen: NONE USED, Dose [Inhibitor]: 2 PPM IN DRINKING WATER DAILY FOR DURATION OF STUDY (STUDY DURATION: 16 MO), Species: MOUSE, Strain/Sex: C3H/FEMALE, Target Tissue: Type of Lesion: MAMMARY GLAND: ADENOCARCINOMA
  tumour outcome (control, treated, inhibition, significance): 82%, 10%, 88%, not calculated
Carcinogen: NONE USED, Dose [Inhibitor]: 5 PPM IN DRINKING WATER DAILY STARTING AT AGE 1 MO AND CONTINUING FOR LIFE (STUDY DURATION: LIFE), Species: MOUSE, Strain/Sex: C3H/FEMALE, Target Tissue: Type of Lesion: MAMMARY GLAND: TUMOR
  tumour outcome (control, treated, inhibition, significance): 82%, 36%, 56%, p<0.005
Carcinogen: NONE USED, Dose [Inhibitor]: 15 PPM IN DRINKING WATER DAILY STARTING AT AGE 1 MO AND CONTINUING FOR LIFE (STUDY DURATION: LIFE), Species: MOUSE, Strain/Sex: C3H/FEMALE, Target Tissue: Type of Lesion: MAMMARY GLAND: TUMOR
  tumour outcome (control, treated, inhibition, significance): 82%, 33%, 60%, p<0.005
